# From patent US20120214862A1, “MODULATION OF FACTOR 7 EXPRESSION” (ISIS Pharmaceuticals, Inc., priority 2009, published 2012)
# In the oligonucleotide strings, read from the 5' end, every base follows the letter of its sugar. An asterisk marks phosphorothioate; unmarked linkages are phosphodiester. Other units and linkages are bracketed, terminal groups are in braces. A string of capitals states the bases alone. e = 2'-O-(2-methoxyethyl) (MOE); [5mC] = 5-methylcytosine; d = 2'-deoxy (DNA)
# Tested on: human Factor 7 mRNA
# Assay: Antisense inhibition of human Factor 7 mRNA in HepB3 cells, lipofectin, 50 nM, real-time RT-PCR
# Type: cell-based
# Details: Example 1; HepB3 cells, lipofectin, 50 nM, ~24 h, relative to untreated control cells
# Method in brief: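 4,000 cells/well; ~24 h exposure; RNA isolated; probe set RTS 2927; normalised to RIBOGREEN® total RNA; % inhibition vs untreated.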
row,Substance,% Inhibition (human Factor 7 mRNA)
1,407614 (antisense eT*eG*e[5mC]*eA*eG*dT*dA*d[5mC]*dT*dG*d[5mC]*dT*d[5mC]*dA*d[5mC]*eA*eG*e[5mC]*e[5mC]*eG) [compound 407614],78%
2,407620 (antisense eA*eG*eG*eA*e[5mC]*d[5mC]*dT*dG*d[5mC]*d[5mC]*dA*dT*dG*dG*dA*e[5mC]*eA*e[5mC]*eT*e[5mC]) [compound 407620],79%
3,403090 (antisense eA*eG*eT*e[5mC]*e[5mC]*dT*dG*dG*dG*dT*d[5mC]*dA*dT*d[5mC]*dA*eG*e[5mC]*e[5mC]*eG*eG) [compound 403090],69%
4,407905 (antisense e[5mC]*e[5mC]*eA*eG*eT*dT*d[5mC]*dT*dT*dG*dA*dT*dT*dT*dT*eG*eT*e[5mC]*eG*eA) [compound 407905],40%
5,407666 (antisense eT*e[5mC]*e[5mC]*e[5mC]*e[5mC]*dA*dG*dG*dA*d[5mC]*dA*dT*d[5mC]*dT*dG*eG*eA*eA*e[5mC]*eT) [compound 407666],52%
6,407955 (antisense eT*eG*eT*eG*eA*dA*dA*dT*dA*dT*d[5mC]*dA*dT*dT*dG*eA*e[5mC]*eA*eA*eG) [compound 407955],3%
7,407603 (antisense eT*eA*eA*eG*eA*dA*dA*dT*d[5mC]*d[5mC]*dA*dG*dA*dA*d[5mC]*eA*eG*e[5mC]*eT*eT) [compound 407603],54%
8,407892 (antisense e[5mC]*e[5mC]*e[5mC]*e[5mC]*eA*dT*dT*d[5mC]*dT*dG*dG*d[5mC]*dA*dT*dG*eG*eA*e[5mC]*eT*eT) [compound 407892],68%
9,407660 (antisense eG*e[5mC]*eT*e[5mC]*eT*dG*dA*dA*dG*dT*dA*dG*dA*dT*dG*eA*eT*eG*e[5mC]*e[5mC]) [compound 407660],16%
10,407923 (antisense e[5mC]*eA*eG*eG*eA*d[5mC]*dA*dG*dT*dT*d[5mC]*dG*dA*d[5mC]*dG*e[5mC]*eA*eG*e[5mC]*e[5mC]) [compound 407923],76%
11,407615 (antisense eG*eA*e[5mC]*eA*e[5mC]*d[5mC]*d[5mC]*d[5mC]*dG*dT*d[5mC]*dT*dG*d[5mC]*d[5mC]*eA*eG*e[5mC]*eA*eG) [compound 407615],65%
12,407928 (antisense e[5mC]*eT*eT*eG*eG*d[5mC]*dT*dG*dA*dA*dG*dG*dG*dA*dG*eG*eT*eA*eA*eG) [compound 407928],55%
13,407888 (antisense e[5mC]*eG*eA*eA*eG*dA*d[5mC]*dT*dG*d[5mC]*dA*dG*d[5mC]*d[5mC]*dA*eG*eG*e[5mC]*eA*eG) [compound 407888],34%
14,407625 (antisense eT*eT*eG*eT*e[5mC]*dG*dA*dA*dA*d[5mC]*dA*dG*dT*dG*dG*eG*e[5mC]*e[5mC]*eG*e[5mC]) [compound 407625],100%

# Same assay, conditions: Example 4; HepB3 cells, lipofectin, 50 nM, ~24 h, relative to untreated control
row,Substance,% Inhibition (human Factor 7 mRNA)
1,422192 (antisense eG*eA*eG*d[5mC]*dG*d[5mC]*dG*dG*dA*dA*dG*dA*dA*dG*dG*dG*dA*e[5mC]*eG*eG) [compound 422192],27%
2,422274 (antisense eT*eT*dA*d[5mC]*dT*dG*dA*dG*d[5mC]*dG*d[5mC]*dG*dG*dA*dA*eG*eA*eA*eG*eG) [compound 422274],24%
3,422264 (antisense e[5mC]*eG*dG*dA*dA*dG*dA*dA*dG*dG*dG*dA*d[5mC]*dG*dG*eA*eA*eG*eG*eT) [compound 422264],24%
4,422127 (antisense eT*eA*e[5mC]*eT*eG*dA*dG*d[5mC]*dG*d[5mC]*dG*dG*dA*dA*dG*eA*eA*eG*eG*eG) [compound 422127],17%

# Same assay, conditions: HepB3 cells, lipofectin, 50 nM antisense oligonucleotide, approximately 24 hours, primer probe set RTS 2927, relative to untreated control
row,Substance,% Inhibition of human Factor 7 mRNA levels
1,416551 (antisense e[5mC]*eA*eG*eA*eA*dA*d[5mC]*dA*d[5mC]*d[5mC]*d[5mC]*dA*dT*d[5mC]*d[5mC]*eT*e[5mC]*eT*eG*eA) [compound 416551],19%
2,416444 (antisense eA*e[5mC]*eA*eG*eT*dT*d[5mC]*d[5mC]*dG*dG*d[5mC]*d[5mC]*d[5mC]*dT*d[5mC]*eG*eA*eA*eG*eG) [compound 416444],24%
3,416473 (antisense e[5mC]*e[5mC]*e[5mC]*eT*eG*d[5mC]*d[5mC]*d[5mC]*d[5mC]*dT*d[5mC]*dT*dG*dT*d[5mC]*e[5mC]*eA*eG*e[5mC]*eG) [compound 416473],61%
4,416546 (antisense e[5mC]*e[5mC]*eA*eG*eG*d[5mC]*dT*dG*dG*dT*dT*dT*dG*dG*dA*eG*eA*eA*eA*e[5mC]) [compound 416546],21%
5,416501 (antisense e[5mC]*eT*eG*e[5mC]*e[5mC]*d[5mC]*dT*dT*d[5mC]*d[5mC]*dA*d[5mC]*d[5mC]*dA*dA*eG*eT*eT*eT*eA) [compound 416501],18%
6,416543 (antisense eT*e[5mC]*e[5mC]*eT*eG*d[5mC]*dG*dA*dG*dT*dG*dG*dG*dA*dG*eT*eT*eG*eG*eA) [compound 416543],0%
7,416558 (antisense eT*eG*eA*e[5mC]*eA*dG*d[5mC]*dA*d[5mC]*dG*dA*dA*dG*d[5mC]*d[5mC]*e[5mC]*eA*eG*eA*eG) [compound 416558],19%
8,416502 (antisense eG*eT*eT*e[5mC]*eT*dT*dT*dG*dA*dA*dA*dA*dA*dT*dA*eA*eT*e[5mC]*e[5mC]*e[5mC]) [compound 416502],22%
9,416565 (antisense e[5mC]*eA*eG*eG*eA*dT*dG*d[5mC]*dT*d[5mC]*dA*dT*dG*dG*d[5mC]*eA*eG*eA*e[5mC]*eA) [compound 416565],0%
10,416547 (antisense eA*eT*eG*eA*eA*dA*dT*dT*d[5mC]*dT*dA*d[5mC]*d[5mC]*dT*dA*eA*eA*eG*eA*eT) [compound 416547],0%

# Same assay, conditions: HepB3 cells; gapmers (5-10-5, 3-14-3, 2-13-5 MOE) targeted to nucleobases 4868 to 4899 of SEQ ID NO: 1
row,Substance,% Inhibition of human Factor 7 mRNA levels
1,422222 (antisense eA*eG*e[5mC]*d[5mC]*d[5mC]*dG*dA*dG*dT*dT*d[5mC]*dT*dG*d[5mC]*dA*dG*dG*eA*eG*e[5mC]) [compound 422222],55%
2,422214 (antisense eT*eT*e[5mC]*dT*dG*d[5mC]*dA*dG*dG*dA*dG*d[5mC]*dG*dG*d[5mC]*d[5mC]*dT*eA*eA*eA) [compound 422214],60%
3,422291 (antisense eT*eT*d[5mC]*dT*dG*d[5mC]*dA*dG*dG*dA*dG*d[5mC]*dG*dG*d[5mC]*e[5mC]*eT*eA*eA*eA) [compound 422291],53%
4,422148 (antisense eG*eG*eA*eG*e[5mC]*d[5mC]*d[5mC]*dG*dA*dG*dT*dT*d[5mC]*dT*dG*e[5mC]*eA*eG*eG*eA) [compound 422148],57%
5,422300 (antisense eG*eA*dG*d[5mC]*d[5mC]*d[5mC]*dG*dA*dG*dT*dT*d[5mC]*dT*dG*d[5mC]*eA*eG*eG*eA*eG) [compound 422300],65%
6,422138 (antisense eT*e[5mC]*eT*eG*e[5mC]*dA*dG*dG*dA*dG*d[5mC]*dG*dG*d[5mC]*d[5mC]*eT*eA*eA*eA*eT) [compound 422138],70%

# Same assay, conditions: HepB3 cells; gapmers targeted to nucleobases 11830 to 11869 of SEQ ID NO: 1 (Table 9)
row,Substance,% Inhibition of human Factor 7 mRNA levels
1,422250 (antisense e[5mC]*eT*dG*dG*d[5mC]*dT*dG*dA*dG*dG*dA*dG*dA*d[5mC]*dA*eA*eT*eG*eG*eT) [compound 422250],54%
2,422173 (antisense e[5mC]*eT*eG*dG*d[5mC]*dT*dG*dA*dG*dG*dA*dG*dA*d[5mC]*dA*dA*dT*eG*eG*eT) [compound 422173],51%
3,422238 (antisense eA*e[5mC]*dA*dA*dT*dG*dG*dT*d[5mC]*dA*dG*dG*dG*d[5mC]*dT*eG*eG*eT*eT*eT) [compound 422238],64%
4,422232 (antisense eG*eT*d[5mC]*dA*dG*dG*dG*d[5mC]*dT*dG*dG*dT*dT*dT*dT*eG*eG*eA*eG*eG) [compound 422232],41%
5,422251 (antisense eG*e[5mC]*dT*dG*dG*d[5mC]*dT*dG*dA*dG*dG*dA*dG*dA*d[5mC]*eA*eA*eT*eG*eG) [compound 422251],36%
6,422089 (antisense eG*eT*e[5mC]*eA*eG*dG*dG*d[5mC]*dT*dG*dG*dT*dT*dT*dT*eG*eG*eA*eG*eG) [compound 422089],22%
7,422241 (antisense eG*eA*dG*dA*d[5mC]*dA*dA*dT*dG*dG*dT*d[5mC]*dA*dG*dG*eG*e[5mC]*eT*eG*eG) [compound 422241],61%

# Same assay, conditions: HepB3 cells; gapmers targeted to nucleobases 13760 to 13789 of SEQ ID NO: 1 (Table 10)
row,Substance,% Inhibition of human Factor 7 mRNA levels
1,422254 (antisense e[5mC]*e[5mC]*d[5mC]*dG*d[5mC]*d[5mC]*dG*dG*d[5mC]*dT*d[5mC]*dT*dG*d[5mC]*dT*e[5mC]*eA*eT*e[5mC]*e[5mC]) [compound 422254],42%
2,422255 (antisense eA*e[5mC]*d[5mC]*d[5mC]*dG*d[5mC]*d[5mC]*dG*dG*d[5mC]*dT*d[5mC]*dT*dG*d[5mC]*eT*e[5mC]*eA*eT*e[5mC]) [compound 422255],30%

# Same assay, conditions: HepB3 cells; gapmers targeted to nucleobases 14707 to 14732 of SEQ ID NO: 1 (Table 11)
row,Substance,% Inhibition of human Factor 7 mRNA levels
1,422204 (antisense eG*e[5mC]*eA*dG*d[5mC]*d[5mC]*dT*dG*dA*dG*dG*d[5mC]*d[5mC]*dA*dG*d[5mC]*dA*eG*eA*eT) [compound 422204],72%
